US9700633B2, “Conjugates of water soluble polymer-amino acid oligopeptide-drug, preparation method and use thereof” (JENKEM TECHNOLOGY CO. LTD., TIANJIN BRANCH, priority 2013, dated 2017)
Several values for one entry are separate records, joined by “and”; a condition that tells them apart may be missing. Equal entries are not always repeated. Structures can show the parent of a compound that is named as a salt. Where two headings read alike, the source gives them in different places. Marks after values point to notes of the source that are not given here.

Columns and labels:
[1] = tested on: human colon cancer HCT-116; assay: Xenografted tumor of human colon cancer HCT-116 in nude mice; type: in vivo, BALB/cA nude mice; details: iv
Description: The diameter of subcutaneously xenografted tumor of the nude mice was measured by the caliper.

[2] = tested on: human lung cancer A549; assay: Xenografted tumor of human lung cancer A549 in nude mice; type: in vivo, BALB/cA nude mice; details: iv
[3] = tested on: human colon cancer HT-29; assay: Xenografted tumor of human colon cancer HT-29 in nude mice; type: in vivo, BALB/cA nude mice; details: iv
[4] = tested on: human ovarian cancer SKOV-3; assay: Xenografted tumor of human ovarian cancer SKOV-3 in nude mice; type: in vivo, BALB/cA nude mice; details: iv; for number of animals with vanished tumor: d28, 6 mice per group
[5] = tested on: K562 human chronic myelogenous leukemia; assay: Subcutaneous tumor model of K562 human chronic myelogenous leukemia; type: in vivo, NOD/SCID mice; details: 5 mg/kg; for Relative tumor volume (x ± SE) / Tumor volume (x ± SE): intravenous twice a week
Description: K562 cells were subcutaneously inoculated at the back of NOD/SCID mice right side so as to establish a subcutaneous xenograft animal model of human chronic myelogenous leukemia. When the average tumor volume reached 130 mm^3, the experiment mice were divided to different groups, with 8 mice for each group, and the drugs were administrated by intravenous injections twice a week. The effect was evaluated based on relative tumor proliferation ratio (T/C %).
Tumor cells were routinely passaged twice a week. Tumor cells in exponential growth phase were collected, then suspended in a mixture of PBS: matrigel with equal volume ratio and placed on ice for tumor inoculation.
5×10^6 K562 cells were subcutaneously inoculated at the back of experiment mice right side. The mice were monitored at regular intervals for the tumor growth. When tumor grew to average 130 mm^3, the mice were divided to groups randomly according to tumor volume and mouse body weight, and were administrated.
(§1) All of the operations relevant to operation, nursing and treatment in this investigation were conducted according to guidelines approved by Association for Assessment and Accreditation of Laboratory Animal Care (AAALAC). After the incoluation, the incidence of disease and death of animals were observed every day. In the process of daily observation, the effects of tumor growth on normal behavior of animals (such as exercise, feeding, drinking, body weight change, eyes, hair) as well as any other abnormality were attentively monitored. Death and clinical symptom were recorded for animals in each group.
The calculation formula for tumor volume is as follows: tumor volume (mm^3)=0.5×(long diameter of the tumor×short diameter of the tumor^2). RTV and T/C ratios were calculated according to the tumor volumes of the treatment groups and the control group. RTV refers to relative tumor volume. T/C ratio refers to the percentage value of the average tumor volumes between the treatment groups and the control group at a time point after the treatment, which reflects the anti-tumor effects of different treatment groups.
All the experiment results were expressed as the average tumor volume±SE (standard error). For statistical analysis, since the variances of relative tumor volume data were different, one-way analysis of variance (one-way ANOVA) and Dunnett T3 method for multiple comparisons were used to compare significant difference of relative tumor volumes between the groups. p<0.05 indicated the significant difference.

[6] = tested on: PC-3 human prostate cancer; assay: Subcutaneous tumor model of PC-3 human prostate cancer; type: in vivo, Balb/c nude mouse; details: 10 mg/kg; for Relative tumor volume (x ± SE): intravenous twice a week
Description: PC-3 cells were subcutaneously inoculated at the right side on the back of Balb/c nude mouse so as to establish a subcutaneous xenograft animal model of human prostate cancer. When the average tumor volume reached 160 mm^3, the experiment mice were divided to different groups, with 8 mice for each group, and the drugs were administrated by intravenous injections twice a week. The therapeutic effect was evaluated based on relative tumor proliferation ratio (T/C %).
PC-3 cell line was cultured in vitro in Ham's F12K medium with supplement of 10% fetal calf serum and L-glutamine (2 mM) at 37° C. in an atmosphere with 5% CO2 for the tumor cells culture. The tumor cells were routinely passaged twice a week. Tumor cells in exponential growth phase were collected, then were suspended in a mixture of PBS: matrigel with equal volume ratio and were placed on ice for tumor inoculation.
5×10^6 PC-3 cells were subcutaneously inoculated at the right side on the back of experiment mice. The mice were monitored at regular intervals for the tumor growth. When tumor grew to average 160 mm^3, the mice were divided to groups randomly according to the tumor volume and the mouse body weight, and were administrated.
as §1
The calculation formula for tumor volume is as follows: tumor volume (mm^3)=0.5×(long diameter of the tumor×short diameter of the tumor^2). RTV and T/C ratios were calculated according to the tumor volumes of the treatment groups and the control group. RTV refers to relative tumor volume. T/C ratio refers to the percentage value of the relative tumor volumes of the treatment groups and the control group at a time point after the treatment, which reflects the anti-tumor effects of different treatment groups. At the end of the experiment, the pictures of the tumors were recorded according to the following two methods: 1. after euthanatized by CO2, the animals in each group were placed with tumor-bearing side up, and the pictures were taken and recorded respectively for each group; 2. after the tumor was removed, the tumor weight was weighed first. T/C (percentage value of the tumor weight between the treatment group and the control group) was calculated, and then the tumors from each group were placed in order. The pictures of the tumors were taken and recorded.
All the experiment results were expressed as average tumor volume±SE (standard error). For statistical analysis, one-way analysis of variance (one-way ANOVA) and LSD multiple comparisons method were used for the relative tumor volume data, comparing the significant difference of the relative tumor volumes between the groups. p<0.05 indicates the significant difference.

[7] = tested on: human liver cancer plc/prf/5; details: 10 mg/kg (based on rapamycin), i.v., Q2W × 2W
Description: Plc/prf/5 cells were cultured in vitro in monolayer under conditions of MEM medium with supplement of 10% heat-inactivated fetal calf serum at 37° C. in an incubator at an atmosphere with 5% CO2. The cells were digested by using tyrisin-EDTA and passaged twice a week. Cells in exponential growth phase were collected, counted and used to inoculate.
1×10^7 plc/prf/5 tumor cells were suspended in 0.1 mL mixture (PBS: Matrigel=4:1), and were inoculated to the right scapula on the back of each NOD/SCID mouse. When the average tumor volume reached about 350 mm^3 at 24th days after the inoculation, the mice with undersized or oversized tumor volume were removed and the other mice were divided to groups randomly according to the tumor volume and then were administrated.

[8] = day 24 after the inoculation (grouping)

## CCc1c2c(nc3ccc(OC(=O)N4CCC(N5CCCCC5)CC4)cc13)-c1cc3c(c(=O)n1C2)COC(=O)[C@]3(O)CC [CPT-11, irinotecan hydrochloride]
[1]; 15 mg/kg, q3w × 3w
  Body weight, End: 16.6 g
  RTV (mean ± SD): 2.57 ± 0.66
  T/C: 39.84%
  TV (mean ± SD) d0: 129 ± 26 mm^3
  TV (mean ± SD) d28: 322 ± 37 mm^3
[1]; 45 mg/kg, qw × 3w
  Body weight, End: 15.1 g
  RTV (mean ± SD): 4.10 ± 0.73
  T/C: 63.56%
  TV (mean ± SD) d0: 126 ± 25 mm^3
  TV (mean ± SD) d28: 512 ± 99 mm^3
[2]; 15 mg/kg, q3w × 3w
  Body weight, Beginning: 18.1 g
  RTV (mean ± SD): 7.67 ± 2.88**^,
  T/C: 53.26%
  TV (mean ± SD) d0: 112 ± 21 mm^3
[2]; 15 mg/kg, q3w × 3w, d28
  TV (mean ± SD) d28: 831 ± 305 mm^3
[2]; 45 mg/kg, qw × 3w
  RTV (mean ± SD): 9.87 ± 4.87
  T/C: 68.54%
  TV (mean ± SD) d0: 110 ± 15 mm^3
[3]; 15 mg/kg, q3w × 3w
  Body weight, Beginning: 18.2 g
  Body weight, End: 16.0 g
  RTV (mean ± SD): 3.79 ± 1.21*^,
  T/C: 27.27%
  TV (mean ± SD) d0: 121 ± 14 mm^3
[3]; 45 mg/kg, qw × 3w
  Body weight, Beginning: 18.6 g
  Body weight, End: 16.2 g
  RTV (mean ± SD): 8.69 ± 3.43
  T/C: 62.52%
  TV (mean ± SD) d0: 116 ± 13 mm^3
[4]; 15 mg/kg, q3w × 3w
  Body weight, Beginning: 18.9 g
  Body weight, End: 18.0 g
  RTV (mean ± SD): 7.39 ± 5.22**^,
  T/C: 55.69%
  TV (mean ± SD) d0: 137 ± 33 mm^3
  TV (mean ± SD) d28: 924 ± 443 mm^3
  number of animals with vanished tumor: 0
[4]; 45 mg/kg, qw × 3w
  Body weight, Beginning: 19.7 g
  RTV (mean ± SD): 12.80 ± 3.91
  T/C: 96.46%
  TV (mean ± SD) d0: 136 ± 44 mm^3
  TV (mean ± SD) d28: 1753 ± 878 mm^3
  number of animals with vanished tumor: 0

## Cc1nc(Nc2ncc(C(=O)Nc3c(C)cccc3Cl)s2)cc(N2CCN(CCO)CC2)n1 [dasatinib]
[5]; 14th day after the grouping, compared with the solvent control group
  T/C (relative tumor proliferation ratio): 12.4%
[5]; 14th day after the grouping
  Relative tumor volume (x ± SE): 226.9 ± 30.0
  Tumor volume (x ± SE): 311 mm^3 and 311 ± 55 mm^3
[5]; 21st day after grouping
  Relative tumor volume (x ± SE): 289.1 ± 46.9
  Tumor volume (x ± SE): 391 mm^3 and 391 ± 79 mm^3
[6]; 22nd day after grouping, compared with the solvent control group
  T/C (relative tumor proliferation ratio): 73%
[6]; 22nd day after grouping
  Relative tumor volume (x ± SE): 1148.9 ± 112.7
[6]; 25th day after grouping
  Relative tumor volume (x ± SE): 1235.3 ± 119.6

## conjugate of Y shape PEG dipeptide of glutamic acid and glycine (number-average molecular weight of 40,000)-rapamycin [LPR-3]
[7]
  Delayed days of tumor growth (to 1000 mm^3): >7 days
[7]; compared with the solvent group, day 38 after the inoculation
  Tumor proliferation rates T/C: 47%
[7]; [8]
  Tumor volume (average ± standard error): 358 ± 62 mm^3
[7]; day 27 after the inoculation
  Tumor volume (average ± standard error): 455 ± 85 mm^3
[7]; day 31 after the inoculation
  Tumor volume (average ± standard error): 569 ± 100 mm^3
[7]; day 34 after the inoculation
  Tumor volume (average ± standard error): 754 ± 151 mm^3
[7]; day 38 after the inoculation
  Tumor volume (average ± standard error): 848 ± 178 mm^3

## conjugate of methoxy PEG (20K) dipeptide of glutamic acid glycine-rapamycin [LPR-2]
[7]
  Delayed days of tumor growth (to 1000 mm^3): >7 days
[7]; [8]
  Tumor volume (average ± standard error): 353 ± 54 mm^3
[7]; day 27 after the inoculation
  Tumor volume (average ± standard error): 404 ± 89 mm^3
[7]; day 31 after the inoculation
  Tumor volume (average ± standard error): 391 ± 72 mm^3
[7]; day 34 after the inoculation
  Tumor volume (average ± standard error): 456 ± 77 mm^3
[7]; day 38 after the inoculation
  Tumor volume (average ± standard error): 536 ± 77 mm^3
